According to patent US11440880B2, “Thalidomide analogs and methods of use” (The USA, as represented by the Secretary, Department of …, priority 2015, dated 2022):
“Also recorded” adds a separate entry of the source.

Key:
[1] = system: nitrite levels in the culture media; test: Nitrite level (Griess Reagent System) in LPS-challenged RAW 264.7 cells; format: cell-based, mouse; set-up: key: NS=not significant; a “+” sign=anti-inflammatory or increased cell numbers; a “−” sign=cell toxicity or pro-inflammatory; conditions: LPS 30 or 60 ng/mL, 24 h
Method in brief: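 RAW 264.7 cells pretreated 1 h with compound in DMSO vehicle, then challenged with LPS (30 or 60 ng/mL) for 24 h at 37° C. Conditioned-media nitrite by Griess (520 nm, sodium nitrite standard curve, 1.5 μM cutoff) in μM; mouse TNF-α by ELISA as pg/ml or % change from control.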

[2] = system: chicken embryos; test: Chicken embryo development / teratogenicity; format: in vivo, white leghorn chicken; conditions: in words; applied at HH stage 17-18
Experimental: Chicken Embryology: Fertilized white leghorn chicken embryos were incubated at 38° C. and staged according to Hamburger and Hamilton (HH) stages of development (1951). Embryos were tested at HH stage 17-18 (day 2.5). Following membrane removal, test compounds or vehicle control solutions were applied globally over the embryo. The eggs were sealed and the development of the embryos was monitored up to HH stage 30 (E9).
Compounds of interest were screened in chicken embryos (FIGS. 7I-7P).
Concentrations used in the WT zebrafish and chicken embryo assays to assess for teratogenesis, were equal to or higher than those utilized in the fil1:EGFP and mpo:GFP zebrafish assays

[3] = system: human saphenous vein sections (microvessel outgrowth); test: Human saphenous vein assay of angiogenesis (ex vivo); format: cell-based; conditions: for inhibition of vessel outgrowth: in words; for vessel outgrowth: 10 days of incubation
Experimental: The saphenous vein was cleaned of subcutaneous tissue and embedded in Matrigel® matrix as previously described. After 10 days of incubation, the transverse sections of the veins were imaged. The outgrowth between the vehicle and no treatment (media) control was equivalent (106.65%±20.14, n=2 and 103.35%±4.06, n=2 respectively; FIGS. 13A and 13B).

[4] = system: 59 cancer cell lines; test: One-dose anti-cancer screening in 59 cancer cell lines; format: cell-based; conditions: 1×10^−5 M; with the exception of leukemic cell lines
From the text: As well as being immunomodulatory and anti-angiogenic, lenalidomide and pomalidomide are directly cytotoxic to cancer cells. […] Compounds 29 and 86 were screened at a concentration of 1×10^−5 M (FIGS. 11 and 12, respectively). Calculated values from 0-100 indicate growth inhibition relative to a no-drug control, and values less than 0 indicate lethality, relative to the number of cells at time zero. A value of 100 means no growth inhibition. A value of 40 means 60% growth inhibition. A value of 0 means no net growth over the course of the experiment. A value of −40 means 40% lethality. A value of −100 means all cells are dead.

[5] = Maximum tolerated dose in SCID mice; format: in vivo; conditions: 3× per week; for deaths / drug-related toxicity / weight loss: 5 mg/kg and 10 mg/kg IV; for MTD: SCID, mouse, in vivo, IV, read-out: selected dose from the maximum tolerated dose study
From the text: (§1) Compounds 29 and 86 were selected for in vivo efficacy studies of human prostate cancer. Mice positive for the severe combined immune deficieny (SCID) spontaneous mutation Prkdc^scid are deficient in functional T cells and B cells, have reduced levels of gamma globulins and lymphopenia (low white blood cell count). Due to their comprised immune system, SCID mice are amenable to xenogeneic grafts. Before starting the efficacy study, a maximum tolerated dose was established for each compound. Compound administration was by tail vein injection (IV) with a 27-gauge needle. A volume of 100 uL per 25 g of body weight was injected for each compound and dose. Compounds 29 and 86 were formulated in 12% DMSO and 88% TPGS (tocopherol polyethylene glycol succinate) in distilled sterile water. This formulation was well tolerated in vehicle control mice. The maximum tolerated dose was defined as the highest dose at which 100% of animals could tolerate treatment with mild or no toxicity for a minimum of one week of treatment. Initially, each compound was administered 3× per week to five mice per group, at 5 and 10 mg/kg. Each dose level was monitored for at least one week. […] Animals were weighed daily during the treatment courses. […] The selected dose for further experimentation was therefore 10 mg/kg.

[6] = Precipitation of the IV formulation; format: physicochemical; conditions: 20 mg/kg; 12% DMSO and 88% TPGS in distilled sterile water
From the text: as §1

[7] = system: PC3 cells (xenografted tumors); test: PC3 xenograft efficacy in SCID mice; format: in vivo; conditions: 10 mg/kg; for tumor burden: day 0 to day 24
From the text: as §1
When the tumors of SCID mice xenografted with PC3 cells were palpable, mice were dosed with 10 mg/kg of compound 29 or compound 86, or given the vehicle alone. From day 0 to day 24, the tumor sizes in vehicle-treated animals increased by 301.33% (FIG. 15, tumor size=401.33%±35.98%).

Nc1cccc2c1CN(C13CC4CC(CC(C4)C1)C3)C2=O [Compound 77, 2,3-Dihydro-4-amino-2-(tricyclo[3.3.1.1^3,7]dec-1-yl)-1H-isoindol-1-one]
Nitrite ([1]; 1 μM): NS
Nitrite ([1]; 10 μM): NS
Nitrite ([1]; 30 μM): NS

CC(N1Cc2c(N)cccc2C1=O)C12CC3CC(CC(C3)C1)C2 (stereo not shown) [Compound 81]
effect on development / mortality of chicken embryos [2]: hemorrhaging throughout the body and head; also recorded: growth reduction and hemorrhaging throughout the head
Nitrite ([1]; 1 μM): NS
Nitrite ([1]; 10 μM): NS
Nitrite ([1]; 30 μM): +

O=C1c2ccccc2CN1C12CC3CC(CC(O)(C3)C1)C2 [Compound 86, 2,3-Dihydro-2-(tricyclo[3.3.1.1^3,7]dec-1-hydroxy-3-yl)-1H-isoindol-1-one]
Nitrite ([1]; 1 μM): NS
Nitrite ([1]; 10 μM): NS
Nitrite ([1]; 30 μM): NS
inhibition of vessel outgrowth ([3]; 10 μM (FIGS. 13D, 13E)): vastly reduced outgrowth
inhibition of vessel outgrowth ([3]; all concentrations): inhibit outgrowth at all concentrations
activity on cell growth / cytotoxicity [4]: very little activity
deaths / drug-related toxicity [5]: no animals died or needed to be euthanized due to drug-related toxicity
weight loss [5]: no significant weight loss
MTD [5]: 10 mg/kg
behaviour of the compound in the dosing solution [6]: precipitate in the solution
tumor burden [7]: No reduction in tumor burden
tumor size versus vehicle treated mice ([7]; p=0.07): trend to separate

O=C1CCC(N2C(=O)c3cccc([N+](=O)[O-])c3C2=O)C(=O)N1 (stereo not shown) [Compound 5]
Nitrite ([1]; 1 μM): NS
Nitrite ([1]; 10 μM): NS
Nitrite ([1]; 30 μM): NS
Nitrite ([1]; 60 μM): NS
Nitrite ([1]; 100 μM): NS

Nc1cccc2c1CN(C1CCC(=O)NC1=O)C2=S (stereo not shown) [Compound 29]
vessel outgrowth ([3]; 5 μM): 155.12%±23.69
vessel outgrowth ([3]; 10 μM): 168.06%±14.87
vessel outgrowth ([3]; 50 μM): 102.38%±16.78
vessel outgrowth ([3]; 100 μM): 62.53%±13.69
inhibition of vessel outgrowth ([3]; 10 μM (FIGS. 13D, 13E)): no inhibition
activity on cell growth / cytotoxicity [4]: very little activity
deaths / drug-related toxicity [5]: no animals died or needed to be euthanized due to drug-related toxicity
weight loss [5]: no significant weight loss
MTD [5]: 10 mg/kg
behaviour of the compound in the dosing solution [6]: precipitate in the solution
tumor burden [7]: No reduction in tumor burden

O=C1NC(=S)CCC1N1C(=O)c2cccc([N+](=O)[O-])c2C1=O (stereo not shown) [Compound 7, 2-(2-Oxo-6-thioxo-3-piperidinyl)-4-nitro-1H-isoindole-1,3(2H)-dione]
Nitrite ([1]; 1 μM): NS
Nitrite ([1]; 10 μM): NS
Nitrite ([1]; 30 μM): +
Nitrite ([1]; 60 μM): +
Nitrite ([1]; 100 μM): +
